# According to patent publication US9617237B2, “Partially saturated tricyclic compounds and methods of making and using same” (Zafgen, Inc., priority 2011, dated 2017):
# Biological target: T1, recombinant human MetAP2 (Homo sapiens, UniProt P50579)
# T1 construct: made in house; host or cells: Sf9 insect cells
# Assay: Inhibition of recombinant human MetAP2 activity (fluorescence, MAS substrate, amino acid oxidase/Amplex red)
# Type: biochemical
# Details: manganese enzyme; 0.75 mM Methionine-Alanine-Serine (MAS) substrate; 30 minutes at 25° C.; pH 7.5; 1% DMSO
# Procedure: Compounds are tested for their capacity to inhibit recombinant human MetAP2 activity using the following assay.
# Human recombinant MetAP2 expressed in Sf9 cells followed by affinity purification and EDTA treatment to remove endogenous active site cation was dialysed against MnCl2 to produce the manganese enzyme used in the assay. The assay was carried out for 30 minutes at 25° C. in 50 mM HEPES buffer containing 100 mM NaCl, pH 7.5 the presence of 0.75 mM Methionine-Alanine-Serine (MAS) substrate and 50 μg/ml amino acid oxidase using a dilution of purified MetAP2 giving >3-fold signal: noise. Cleavage of the substrate by MetAP2 and oxidation of free methionine by amino acid oxidase was detected and quantified using fluorescence generated by Amplex red (10-acetyl-3,7-dihydroxyphenoxazine) in combination with horseradish peroxidase which detects H2O2 released during the oxidation step. The fluorescent signal was detected using a multiwell fluorimeter. Compounds were diluted in DMSO prior to addition to assay buffer, the final DMSO concentration in the assay being 1%.
# IC50 values are calculated using the XLfit software package (version 2.0.5).
# T1 sequence (P50579 whole entry): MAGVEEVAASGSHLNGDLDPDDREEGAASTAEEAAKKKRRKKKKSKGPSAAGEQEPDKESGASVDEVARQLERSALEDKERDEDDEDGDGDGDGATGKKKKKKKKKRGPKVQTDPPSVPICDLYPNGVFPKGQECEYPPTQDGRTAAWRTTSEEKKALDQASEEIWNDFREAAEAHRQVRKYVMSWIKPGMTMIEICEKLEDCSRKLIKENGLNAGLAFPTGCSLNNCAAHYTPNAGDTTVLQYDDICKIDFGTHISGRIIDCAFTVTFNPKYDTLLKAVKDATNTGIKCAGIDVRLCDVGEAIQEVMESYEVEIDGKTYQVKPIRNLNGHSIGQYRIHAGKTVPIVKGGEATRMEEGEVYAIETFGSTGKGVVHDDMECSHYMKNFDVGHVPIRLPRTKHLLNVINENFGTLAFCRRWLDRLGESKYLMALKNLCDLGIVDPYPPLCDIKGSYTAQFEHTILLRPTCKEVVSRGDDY
row,SMILES,IC50 [nM]
1,"CN(C)CCCC(=O)Nc1cc(F)ccc1S(=O)(=O)Nc1ccc2c(c1C(=O)O)OC[C@@H]1C[C@H]21 (racemic) [(1aRS,7bSR)-5-[2-(4-Dimethylaminobutyrylamino)-4-fluorobenzenesulfonyl-amino]-1,1a,2,7b-tetrahydrocyclopropa-[c]chromene-4-carboxylic acid]",50 to 500
2,"CCN1CCN(Cc2cc(F)ccc2S(=O)(=O)Nc2ccc3c(c2C(=O)O)OC[C@@H]2C[C@H]32)C(=O)C1 (racemic) [(1aRS,7bSR)-5-[2-(4-Ethyl-2-oxopiperazin-1-ylmethyl)-4-fluorobenzene-sulfonylamino]-1,1a,2,7b-tetrahydrocyclopropa-[c]chromene-4-carboxylic acid]",50 to 500
3,"CCN1CC(CCc2cc(F)ccc2S(=O)(=O)Nc2ccc3c(c2C(=O)O)OC[C@@H]2C[C@H]32)C1 (racemic) [(1aRS,7bSR)-5-{2-[2-(1-Ethylazetidin-3-yl)ethyl]-4-fluoro-benzenesulfonyl-amino}-1,1a,2,7b-tetrahydrocyclopropa-[c]chromene-4-carboxylic acid]",50 to 500
4,"CCN1CCN(CCc2cc(F)ccc2S(=O)(=O)Nc2ccc3c(c2C(=O)O)OC[C@@H]2C[C@H]32)CC1 (racemic) [(1aRS,7bSR)-5-{2-[2-(4-Ethylpiperazin-1-yl)-ethyl]-4-fluorobenzenesulfonylamino}-1,1a,2,7b-tetrahydrocyclopropa[c]chromene-4-carboxylic acid]",50 to 500
5,"O=C(O)c1c(NS(=O)(=O)c2ccc(F)cc2CCN2CCCC2)ccc2c1OC[C@@H]1C[C@H]21 (racemic) [(1aRS,7bSR)-5-{2-[2-(Pyrrolidin-1-yl)-ethyl]-4-fluorobenzene-sulfonylamino}-1,1a,2,7b-tetrahydrocyclopropa[c]chromene-4-carboxylic acid]",50 to 500
6,"O=C(O)c1c(NS(=O)(=O)c2ccccc2N[C@H]2CN3CCC2CC3)ccc2c1OCC1CC21 (mixture of isomers) [(1aRS,7bSR)-5-{2-[((R)-1-Azabicyclo[2.2.2]oct-3-yl)amino]benzenesulfonyl-amino}-1,1a,2,7b-tetrahydrocyclopropa[c]chromene-4-carboxylic acid]",< 50
7,"O=C(O)c1c(NS(=O)(=O)c2ccccc2N[C@@H]2CN3CCC2CC3)ccc2c1OCC1CC21 (mixture of isomers) [(1aRS,7bSR)-5-{2-[((S)-1-Azabicyclo[2.2.2]oct-3-yl)amino]benzenesulfonyl-amino}-1,1a,2,7b-tetrahydrocyclopropa[c]chromene-4-carboxylic acid]",50 to 500
8,"CN(C)CCCCN(C)c1ccccc1S(=O)(=O)Nc1ccc2c(c1C(=O)O)OC[C@@H]1C[C@H]21 (racemic) [(1aRS,7bSR)-5-{2-[N-(4-Dimethylaminobutyl)-N-methylamino]-benzenesulfonyl-amino}-1,1a,2,7b-tetrahydrocyclopropa-[c]chromene-4-carboxylic acid]",> 500
9,"O=C(O)c1c(NS(=O)(=O)c2ccc(F)cc2/C=C\CN2CCC2)ccc2c1OC[C@@H]1C[C@H]21 (racemic) [(1aRS,7bSR)-5-{2[(Z)-3-(Azetidin-1-yl)prop-1-enyl]-4-fluorobenzene-sulfonylamino}-1,1a,2,7b-tetrahydro-cyclopropa[c]chromene-4-carboxylic acid]",50 to 500
10,"O=C(O)c1c(NS(=O)(=O)c2ccccc2)ccc2c1OC[C@H]1OCC[C@@H]21 (racemic) [Cis-(3aRS,9bRS)-7-(Benzenesulfonylamino)-1,3a,4,9b-tetrahydro-2H-furo[2,3-c]chromene-6-carboxylic acid]",50 to 500
11,"CCN(CC)CCCc1cc(F)ccc1S(=O)(=O)Nc1ccc2c(c1C(=O)O)OC[C@H]1OCC[C@@H]21 (racemic) [Cis-(3aRS,9bRS)-7-[2-(3-Diethylaminopropyl)-4-fluorobenzenesulfonyl-amino]-1,3a,4,9b-tetrahydro-2H-furo[2,3-c]chromene-6-carboxylic acid]",50 to 500
12,"CN(C)CCCCNc1ccccc1S(=O)(=O)Nc1ccc2c(c1C(=O)O)OC[C@H]1OCC[C@@H]21 (racemic) [Cis-(3aRS,9bRS)-7-[2-(4-dimethylamino-butylamino)-benzenesulfonylamino]-1,3a,4,9b-tetrahydro-2H-furo[2,3-c]chromene-6-carboxylic acid]",50 to 500
13,"CCN(CC)CC/C=C\c1cc(F)ccc1S(=O)(=O)Nc1ccc2c(c1C(=O)O)OCC1CC21 (single isomer, unassigned) [(1aRS,7bSR)-5-[2((Z)-4-diethylaminobut-1-enyl)-4-fluorobenzenesulfonyl-amino]-1,1a,2,7b-tetrahydrocyclopropa[c]chromene-4-carboxylic acid]",50 to 500

# Second part, the compound after the results:
row,IC50 [nM],SMILES
1,< 50,"CCN1CCC(Cc2cc(F)ccc2S(=O)(=O)Nc2ccc3c(c2C(=O)O)OC[C@@H]2C[C@H]32)CC1 (racemic) [(1aRS,7bSR)-5-[2-(1-Ethylpiperidin-4-ylmethyl)-4-fluoro-benzenesulfonylamino]-1,1a,2,7b-tetrahydrocyclopropa-[c]chromene-4-carboxylic acid]"
2,< 50,"CN(C)CCCNc1ccccc1S(=O)(=O)Nc1ccc2c(c1C(=O)O)OC[C@@H]1C[C@H]21 (racemic) [(1aRS,7bSR)-5-[2-(3-Dimethylaminopropylamino)benzene-sulfonylamino]-1,1a,2,7b-tetrahydrocyclopropa[c]chromene-4-carboxylic acid]"
3,50 to 500,"CN(C)CCCNC(=O)c1ccccc1S(=O)(=O)Nc1ccc2c(c1C(=O)O)OC[C@@H]1C[C@H]21 (racemic) [(1aRS,7bSR)-5-[2-(3-Dimethylaminopropylcarbamoyl)benzene-sulfonylamino]-1,1a,2,7b-tetrahydrocyclopropa[c]chromene-4-carboxylic acid]"
4,50 to 500,"CN(C)CCCCNc1cc(F)ccc1S(=O)(=O)Nc1ccc2c(c1C(=O)O)OC[C@@H]1C[C@H]21 (racemic) [(1aRS,7bSR)-5-[2-(4-Dimethylaminobutylamino)-4-fluoro-benzenesulfonyl-amino]-1,1a,2,7b-tetrahydrocyclopropa-[c]chromene-4-carboxylic acid]"
5,< 50,"CN(C)CCCCNc1ccccc1S(=O)(=O)Nc1ccc2c(c1C(=O)O)OC[C@@H]1C[C@H]21 (racemic) [(1aRS,7bSR)-5-[2-(4-Dimethylaminobutylamino)benzene-sulfonylamino]-1,1a,2,7b-tetrahydrocyclopropa[c]chromene-4-carboxylic acid]"
6,< 50,"CN(C)CCCCCNc1ccccc1S(=O)(=O)Nc1ccc2c(c1C(=O)O)OC[C@@H]1C[C@H]21 (racemic) [(1aRS,7bSR)-5-[2-(5-Dimethylaminopentylamino)benzene-sulfonylamino]-1,1a,2,7b-tetrahydrocyclopropa[c]chromene-4-carboxylic acid]"
7,< 50,"CCN(CC)C/C(C)=C\c1cc(F)ccc1S(=O)(=O)Nc1ccc2c(c1C(=O)O)OC[C@@H]1C[C@H]21 (racemic) [(1aRS,7bSR)-5-[2-((Z)-3-Diethylamino-2-methylprop-1-enyl)-4-fluorobenzene-sulfonylamino]-1,1a,2,7b-tetrahydrocyclopropa-[c]chromene-4-carboxylic acid]"
8,< 50,"CCN(CC)C/C=C\c1cc(F)ccc1S(=O)(=O)Nc1ccc2c(c1C(=O)O)OCC1C2C1(F)F (racemic) [(1aRS,7bSR)-5-[2-((Z)-3-Diethylaminoprop-1-enyl)-4-fluorobenzene-sulfonylamino]-1,1-difluoro-1,1a,2,7b-tetrahydrocyclopropa[c]chromene-4-carboxylic acid]"
9,< 50,"O=C(O)c1c(NS(=O)(=O)c2ccc(F)cc2/C=C\CN2CCCC2)ccc2c1OC[C@@H]1C[C@H]21 (racemic) [(1aRS,7bSR)-5-{2[(Z)-3-(Pyrrolidin-1-yl)prop-1-enyl]-4-fluorobenzenesulfonylamino}-1,1a,2,7b-tetrahydro-cyclopropa[c]chromene-4-carboxylic acid]"
10,< 50,"O=C(O)c1c(NS(=O)(=O)c2ccc(F)cc2CCCN2CCCC2)ccc2c1OC[C@H]1OCC[C@@H]21 (racemic) [Cis-(3aRS,9bRS)-7-[2-(3-{Pyrrolidin-1-yl}propyl)-4-fluorobenzene-sulfonylamino]-1,3a,4,9b-tetrahydro-2H-furo[2,3-c]chromene-6-carboxylic acid]"
11,< 50,"CCN(CC)C/C=C\c1cc(F)ccc1S(=O)(=O)Nc1ccc2c(c1C(=O)O)OC[C@H]1OCC[C@@H]21 (racemic) [Cis-(3aRS,9bRS)-7-[2-((Z)-3-Diethylaminoprop-1-enyl)-4-fluoro-benzenesulfonylamino]-1,3a,4,9b-tetrahydro-2H-furo[2,3-c]chromene-6-carboxylic acid]"
12,< 50,"CCN(CC)C/C=C\c1cc(F)ccc1S(=O)(=O)Nc1ccc2c(c1C(=O)O)NC[C@H]1OCC[C@@H]21 (racemic) [Cis-(3aRS,9bRS)-7-[2-((Z)-3-Diethylaminoprop-1-enyl)-4-fluorobenzenesulfonylamino]-1,2,3a,4,5,9b-hexahydrofuro[2,3-c]quinoline-6-carboxylic acid]"
13,< 50,"CCN1CC[C@@H](Cc2cc(F)ccc2S(=O)(=O)Nc2ccc3c(c2C(=O)O)OC[C@@H]2C[C@H]32)C1 (single isomer, unassigned)"
14,< 50,"CCNC/C=C\c1cc(F)ccc1S(=O)(=O)Nc1ccc2c(c1C(=O)O)OC[C@@H]1C[C@H]21 (single isomer, unassigned) [(1aRS,7bSR)-5-[2((Z)-3-ethylaminoprop-1-enyl)-4-fluorobenzenesulfonylamino]-1,1a,2,7b-tetrahydrocyclopropa[c]chromene-4-carboxylic acid]"
